# System: control human primary myoblasts
# Assay: Expression microarray of primary myoblasts transduced with lentivirus carrying DUX4-fl, DUX4-s or GFP
# Experimental: Primary human myoblasts were collected and cultured as previously described (Snider et al., 2010). Primary myoblasts were maintained at or below 70% confluency for proliferation. For differentiation, cells were allowed to reach 95-100% confluency in growth medium. Once confluency was reached, the cells were changed to differentiation medium (F10 media supplemented with 1% horse serum, 10 μg/mL insulin, and 10 μg/mL transferrin, penicillin/streptomycin) and maintained for 4 days. Human RD cells were grown in DMEM in 10% bovine calf serum (Hyclone) and penicillin/streptomycin. The primary myoblasts were transduced with lentivirus carrying DUX-fl, DUX4- or GFP (MOI=15).
# Expression microarrays were performed on the transduced cells at 24 hours after transduction as follows. […] Samples were analyzed by Illumina Human Whole Genome microarrays. Probe intensities were corrected, normalized, and summarized by the Lumi package of Bioconductor (Du et al., 2008). Differentially expressed genes were identified by the LIMMA package of Bioconductor (Wettenhall and Smyth, 2004). Gene set enrichment analysis (GSEA) was performed using the Bioconductor GOstats package (Falcon and Gentleman, 2007).
substance,measurement,setting,value
"DUX4-fl: full-length DUX4 protein (SEQ ID NO:110), expressed from lentiviral or pCS2 vectors or in vitro translated",CHI3L2 expression fc,"Refseq NM_004000.2, cultured human skeletal muscle",−2.705
same,IRF7 expression fc,"Refseq NM_004029.2, cultured human skeletal muscle",−1.959
same,CRY1 expression fc,Refseq NM_004075.2,2.342
same,PSPN expression fc,Refseq NM_004158.2,2.203
same,BEST1 fc,Refseq NM_004183.2,−1.101
same,UBE2L6 expression fc,"Refseq NM_004223.3, cultured human skeletal muscle",−3.085
same,fc of STK17B (expression array),Refseq NM_004226.2,−0.05995
same,fc of SLC9A3R1 (expression array),Refseq NM_004252.2,−1.036
same,BST2 expression fc,"Refseq NM_004335.2, cultured human skeletal muscle",−4.248
same,CREB1 fc,Refseq NM_004379.2,−1.133
same,fc of HOXB7 (expression array),Refseq NM_004502.3,−1.037
same,SP110 expression fc,"Refseq NM_004510.2, cultured human skeletal muscle",−2.941
same,PSPH fc,Refseq NM_004577.3,−1.164
same,XPC expression fc,"Refseq NM_004628.3, cultured human skeletal muscle",−2.458
same,PABPN1 expression fc,Refseq NM_004643.1,2.567
same,MAP3K6 fc,Refseq NM_004672.3,−1.074
same,fc of SLC16A5 (expression array),Refseq NM_004695.2,−1.025
same,fc of SFRS2IP (expression array),Refseq NM_004719.2,−0.0565
same,fc of ARHGEF2 (expression array),Refseq NM_004723.2,−1.057
same,TIAF1 fc,Refseq NM_004740.3,−1.123
same,NOLC1 expression fc,Refseq NM_004741.1,2.439
same,SLIT2 expression fc,Refseq NM_004787.1,2.369
same,LPXN fc,Refseq NM_004811.1,−1.124
same,PEX16 fc,Refseq NM_004813.1,−1.101
same,C9orf61 expression fc,Refseq NM_004816.2,2.614
same,MED26 expression fc,Refseq NM_004831.3,2.1
same,fc of GSTO1 (expression array),Refseq NM_004832.1,−1.03
same,fc of LITAF (expression array),Refseq NM_004862.2,−0.5892
same,fc of SCAMPI (expression array),Refseq NM_004866.4,−0.4749
same,fc of APBA3 (expression array),Refseq NM_004886.3,−1.032
same,SERPINI1 expression fc,Refseq NM_005025.3,1.809
same,TRIM25 expression fc,"Refseq NM_005082.4, cultured human skeletal muscle",−2.513
same,SFRS17A expression fc,Refseq NM_005088.2,2.456
same,ISG15 expression fc,"Refseq NM_005101.1, cultured human skeletal muscle",−4.311
same,MVP fc,Refseq NM_005115.3,−1.178
same,MED13 expression fc,Refseq NM_005121.2,1.817
same,fc of REC8 (expression array),Refseq NM_005132.2,−1.007
same,ATP6V0A1 fc,Refseq NM_005177.3,−1.152
same,CEBPB expression fc,"Refseq NM_005194.2, cultured human skeletal muscle",−2.441
same,ETS1 fc,Refseq NM_005238.2,−1.067
same,FAT1 fc,Refseq NM_005245.3,−1.138
same,GPR37 expression fc,Refseq NM_005302.2,2.121
same,H1F0 expression fc,"Refseq NM_005318.2, cultured human skeletal muscle",−2.434
same,HSPA1A expression fc,Refseq NM_005345.4,3.54
same,HSPA1B expression fc,Refseq NM_005346.3,3.402
same,NEFM expression fc,Refseq NM_005382.1,2.925
same,SHMT2 fc,Refseq NM_005412.4,−1.089
same,STAT2 expression fc,"Refseq NM_005419.2, cultured human skeletal muscle",−2.69
same,EOMES expression fc,Refseq NM_005442.2,2.897
same,TOM1 fc,Refseq NM_005488.1,−1.129
same,HLA-B expression fc,"Refseq NM_005514.5, cultured human skeletal muscle",−2.752
same,HLA-E fc,Refseq NM_005516.4,−1.11
same,IFI16 expression fc,"Refseq NM_005531.1, cultured human skeletal muscle",−2.008
same,IFI27 expression fc,"Refseq NM_005532.3, cultured human skeletal muscle",−6.527
same,IFI35 expression fc,"Refseq NM_005533.2, cultured human skeletal muscle",−3.847
same,IRS1 fc,Refseq NM_005544.1,−1.157
same,KLC1 expression fc,Refseq NM_005552.4,1.967
same,RGS4 expression fc,Refseq NM_005613.3,1.951
same,SGK expression fc,Refseq NM_005627.2,2.04
same,TAF4B expression fc,Refseq NM_005640.1,1.87
same,fc of TERF2 (expression array),Refseq NM_005652.2,−1.02
same,fc of REEP5 (expression array),Refseq NM_005669.4,−0.3556
same,fc of HIPK3 (expression array),Refseq NM_005734.3,−0.2982
same,ARIH1 expression fc,Refseq NM_005744.2,2.243
same,fc of NAMPT (expression array),Refseq NM_005746.2,−0.5767
same,LHFPL2 fc,Refseq NM_005779.1,−1.13
same,STX6 expression fc,Refseq NM_005819.4,2.053
same,fc of RCAN2 (expression array),Refseq NM_005822.2,−0.5968
same,MFGE8 fc,Refseq NM_005928.1,−1.15
same,MT1X expression fc,"Refseq NM_005952.2, cultured human skeletal muscle",−2.444
same,SNAI1 expression fc,Refseq NM_005985.2,1.943
same,RBM12 expression fc,Refseq NM_006047.4,2.013
same,TRIM22 expression fc,"Refseq NM_006074.3, cultured human skeletal muscle",−2.581
same,CBARA1 expression fc,Refseq NM_006077.2,2.064
same,TUBB2C expression fc,Refseq NM_006088.5,1.948
same,LASP1 fc,Refseq NM_006148.1,−1.152
same,NFE2L2 fc,Refseq NM_006164.2,−1.093
same,OAS3 expression fc,"Refseq NM_006187.2, cultured human skeletal muscle",−4.029
same,fc of PDGFRL (expression array),Refseq NM_006207.1,−0.6227
same,PSME1 fc,Refseq NM_006263.2,−1.138
same,STK3 expression fc,Refseq NM_006281.2,2.186
same,THY1 fc,Refseq NM_006288.2,−1.067
same,TNFAIP3 expression fc,"Refseq NM_006290.2, cultured human skeletal muscle",−2.897
same,HSPB3 expression fc,Refseq NM_006308.1,1.914
same,NXF1 expression fc,Refseq NM_006362.4,4.233
same,fc of ATG7 (expression array),Refseq NM_006395.1,−1.016
same,SLC34A2 expression fc,Refseq NM_006424.2,5.514
same,TXNRD2 fc,Refseq NM_006440.3,−1.104
same,fc of MXD4 (expression array),Refseq NM_006454.2,−1.035
same,ARID3B expression fc,Refseq NM_006465.2,2.024
same,TXNIP expression fc,"Refseq NM_006472.2, cultured human skeletal muscle",−1.9
same,ZNF217 expression fc,Refseq NM_006526.2,4.114
same,FAM189B fc,Refseq NM_006589.2,−1.075
same,fc of TCFL5 (expression array),Refseq NM_006602.2,−1.053
same,RFPL2 expression fc,Refseq NM_006605.1,7.293
same,fc of NES (expression array),Refseq NM_006617.1,−0.08904
same,HSPH1 expression fc,Refseq NM_006644.2,2.217
same,HCP5 fc,Refseq NM_006674.2,−1.099
same,UGP2 fc,Refseq NM_006759.3,−1.169
same,IFI44L expression fc,"Refseq NM_006820.1, cultured human skeletal muscle",−5.117
same,fc of CKAP4 (expression array),Refseq NM_006825.2,−1.006
same,fc of ILVBL (expression array),Refseq NM_006844.3,−1.015
same,KDELR3 fc,Refseq NM_006855.2,−1.163
same,fc of GMPR (expression array),Refseq NM_006877.2,−0.4519
same,SLC2A3 expression fc,Refseq NM_006931.1,3.385
same,fc of HSPA13 (expression array),Refseq NM_006948.4,−0.1756
same,ZBTB25 fc,Refseq NM_006977.2,−1.113
same,ADAMTS1 fc,Refseq NM_006988.3,−1.164
same,C1Oorf10 expression fc,"Refseq NM_007021.2, cultured human skeletal muscle",−2.641
same,fc of DNAJB4 (expression array),Refseq NM_007034.3,−1.024
same,KATNA1 expression fc,Refseq NM_007044.2,1.819
same,UBL3 expression fc,Refseq NM_007106.2,2.164
same,TESK2 expression fc,Refseq NM_007170.2,1.787
same,NUP50 expression fc,Refseq NM_007172.3,2.324
same,fc of PACSIN2 (expression array),Refseq NM_007229.1,−1.038
same,DUSP12 expression fc,Refseq NM_007240.1,2.249
same,fc of MGLL (expression array),Refseq NM_007283.5,−1.033
same,STAT1 expression fc,"Refseq NM_007315.2, cultured human skeletal muscle",−2.915
same,fc of LGALS9 (expression array),Refseq NM_009587.2,−0.8549
same,FRAT2 expression fc,Refseq NM_012083.2,1.918
same,fc of CDC42EP4 (expression array),Refseq NM_012121.4,−1.034
same,CHORDC1 expression fc,Refseq NM_012124.1,1.805
same,CLDN14 expression fc,Refseq NM_012130.2,3.148
same,TFIP11 expression fc,Refseq NM_012143.2,3.191
same,SIRT1 expression fc,Refseq NM_012238.3,1.844
same,KCNH4 expression fc,Refseq NM_012285.1,2.749
same,BAMBI expression fc,Refseq NM_012342.2,2.783
same,fc of TINF2 (expression array),Refseq NM_012461.1,−1.025
same,CD24 expression fc,Refseq NM_013230.2,2.624
same,ZNF214 expression fc,Refseq NM_013249.1,2.219
same,TBK1 fc,Refseq NM_013254.2,−1.08
same,MYLIP expression fc,Refseq NM_013262.3,1.824
same,TRA2A expression fc,Refseq NM_013293.3,1.978
same,fc of EEF2K (expression array),Refseq NM_013302.3,−1.058
same,SERTAD1 expression fc,Refseq NM_013376.3,2.002
same,fc of SLC25A24 (expression array),Refseq NM_013386.3,−0.2843
same,fc of CLIC4 (expression array),Refseq NM_013943.1,−0.9976
same,BZW2 expression fc,Refseq NM_014038.1,2.677
same,LRP10 fc,Refseq NM_014045.3,−1.102
same,fc of FAM156A (expression array),Refseq NM_014138.3,−1.027
same,SMARCAL1 fc,Refseq NM_014140.2,−1.157
same,CCDC59 expression fc,Refseq NM_014167.2,1.892
same,fc of TDRD7 (expression array),Refseq NM_014290.1,−1.062
same,DDX58 expression fc,"Refseq NM_014314.3, cultured human skeletal muscle",−2.466
same,PDSS1 expression fc,Refseq NM_014317.3,2.003
same,AMACR expression fc,Refseq NM_014324.4,2.743
same,PPP1R15A expression fc,Refseq NM_014330.2,2.08
same,TSPAN13 expression fc,Refseq NM_014399.3,2.117
same,APOBEC3C fc,Refseq NM_014508.2,−1.108
same,EVC expression fc,"Refseq NM_014556.2, cultured human skeletal muscle",−1.954
same,SCHIP1 expression fc,"Refseq NM_014575.2, cultured human skeletal muscle",−2.093
same,SLC40A1 expression fc,Refseq NM_014585.3,1.859
same,CDR2L fc,Refseq NM_014603.1,−1.119
same,TAX1BP3 fc,Refseq NM_014604.2,−1.072
same,CTR9 expression fc,Refseq NM_014633.3,2.402
same,SLC25A44 expression fc,Refseq NM_014655.1,2.017
same,MTSS1 fc,Refseq NM_014751.4,−1.159
same,LBA1 fc,Refseq NM_014831.1,−1.121
same,KIAA0020 expression fc,Refseq NM_014878.4,2.017
same,ABLIM3 fc,Refseq NM_014945.2,−1.174
same,WDR47 expression fc,Refseq NM_014969.4,2.277
same,ARC expression fc,Refseq NM_015193.3,1.802

# Reference: patent US20140242093A1, “METHODS AND COMPOSITIONS FOR MODULATING THE INNATE IMMUNE RESPONSE AND/OR MYOGENESIS IN A MAMMALIAN SUBJECT” (FRED HUTCHINSON CANCER RESEARCH CENTER, priority 2011, published 2014)
